Results from patent US5804410A, “Nucleic acid sequence encoding trypsin-like enzyme and process for producing the enzyme” (Teijin Limited, priority 1994, dated 1998).
“Also recorded” adds a separate entry of the source. Where two headings read alike, the source gives them in different places. *1 amine or outer side, *2 acyl side, *3 side chain or, on linkers, in order; H or OH if unused. Where a SMILES comes first, the peptide text is derived from it. The star is where a group is joined. AMC = Cc1cc(=O)oc2cc(N*)ccc12; Suc = O=C(CCC(=O)[*:2])[*:1]; Boc = CC(C)(C)OC(=O)*; CO = O=C([*:1])[*:2]

Tests used:
trypsin-like enzyme [1] = target: T1, trypsin-like enzyme (Homo sapiens, UniProt O60235); assay: Substrate specificity, synthetic MCA substrates (assay method of trypsin activity); type: biochemical; details: pH 8.6, 0.1M Tris-HCl; activity on Boc-Phe-Ser-Arg-MCA taken to be 100%
T1 construct: from tissue; host or cells: cough phlegm (sputum) of patients with chronic disease of the respiratory tract

[2] = target: T2, human neutrophile elastase (Homo sapiens, UniProt P08246); assay: Substrate specificity, synthetic MCA substrates; type: biochemical
T2 sequence (P08246 30-267): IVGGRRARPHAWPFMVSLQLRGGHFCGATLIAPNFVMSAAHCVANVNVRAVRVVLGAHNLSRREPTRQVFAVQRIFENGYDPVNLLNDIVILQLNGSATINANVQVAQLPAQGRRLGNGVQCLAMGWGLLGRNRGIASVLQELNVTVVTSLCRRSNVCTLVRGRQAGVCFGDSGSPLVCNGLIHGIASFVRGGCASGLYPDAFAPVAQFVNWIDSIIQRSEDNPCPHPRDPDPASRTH

[3] = system: rat mast cell-derived tryptase; assay: Substrate specificity, synthetic MCA substrates; type: biochemical; details: activity on Suc-Phe-Ser-Arg-MCA taken to be 100%
trypsin-like enzyme [4] = target: T1, trypsin-like enzyme; assay: Effect of protease inhibitors on enzymatic activity; type: biochemical; details: for inhibition at 10 µM: read-out: Inhibition (%) Trypsin-like protease (human)
[5] = target: T3, human-derived neutrophile elastase (Homo sapiens, UniProt P08246); assay: as above; type: biochemical; details: for inhibition at 10 µM: read-out: Inhibition (%) Neutrophile elastase (human)
T3 sequence (P08246 30-267): T2 sequence (P08246 30-267)

[6] = system: rat mast cell-derived tryptase; assay: as above; type: biochemical
trypsin-like enzyme [7] = target: T1, trypsin-like enzyme; assay: Digestion of natural substrates detected by SDS-polyacrylamide gel electrophoresis; type: biochemical
[8] = target: Suc-Gly-Pro-Leu-Gly-Pro-MCA
[9] = target: rat mast cell-derived tryptase (rat) (UniProt P27435)
[10] = target: trypsin-like enzyme isolated from cough phlegm of a patient suffering from a chronic respiratory apparatus disease (human)
[11] = pH 8.6, activity on Suc-Ala-Pro-Ala-MCA taken to be 100%
[12] = Example 5: inhibitors 10 μM, PMSF 1 mM

Sequence of trypsin-like enzyme isolated from cough phlegm of a patient suffering from a chronic respiratory apparatus disease (O60235 187-418 limits assumed): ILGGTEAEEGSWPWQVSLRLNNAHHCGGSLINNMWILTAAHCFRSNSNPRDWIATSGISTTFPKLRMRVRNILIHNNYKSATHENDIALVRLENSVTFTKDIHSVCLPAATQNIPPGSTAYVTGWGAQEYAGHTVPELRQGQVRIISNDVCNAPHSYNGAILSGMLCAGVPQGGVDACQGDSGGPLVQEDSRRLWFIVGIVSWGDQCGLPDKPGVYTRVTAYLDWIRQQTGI
T1 sequence (O60235 187-418): as the sequence (O60235 187-418 limits assumed) above

Cc1cc(=O)oc2cc(NC(=O)[C@H](Cc3ccccc3)NC(=O)[C@@H]3CCCN3C(=O)[C@H](C)NC(=O)[C@H](C)NC(=O)CCC(=O)O)ccc12 [Suc-Ala-Ala-Pro-Phe-MCA] (Suc-AAPF-{AMC})
Substrate digestion ratio (%) Trypsin-like enzyme pH 8.6 (trypsin-like enzyme [1]): 0% | Substrate digestion ratio (%) Neutrophile elastase pH 8.6 [2]: 0.1% | Substrate digestion ratio (%) Rat mast cell Tryptase pH 8.6 [3]: 2.0%

Cc1cc(=O)oc2cc(NC(=O)[C@H](CCCCN)NC(=O)[C@H](CC(C)C)NC(=O)[C@@H](NC(=O)OC(C)(C)C)C(C)C)ccc12 [Boc-Val-Leu-Lys-MCA] (Boc-Val-Leu-Lys-{AMC})
Substrate digestion ratio (%) Trypsin-like enzyme pH 8.6 (trypsin-like enzyme [1]): 3.9% | Substrate digestion ratio (%) Neutrophile elastase pH 8.6 [2, 11]: 0.1% | Substrate digestion ratio (%) Rat mast cell Tryptase pH 8.6 [3]: 6.1%

CC(C)[C@H](NC(=O)[C@H](CCCNC(=N)N)NC(=O)N[C@@H](Cc1ccccc1)C(=O)O)C(=O)N[C@H](C=O)CCCNC(=N)N [Antipain, antipain] ({Phe-CO}-Arg-Val-Arg-aldehyde)
Inhibition of trypsin-like enzyme (in words) (trypsin-like enzyme [4]): inhibited | inhibition at 10 µM (trypsin-like enzyme [4]): 78.1% | inhibition at 10 µM [5]: 11.1% | Inhibition (%) Tryptase (derived from rat mast cell) ([6]; 10 µM): 98.2%

O=S(=O)(F)Cc1ccccc1 [PMSF, phenylmethylsulfonyl fluoride]
Inhibition of trypsin-like enzyme (in words) (trypsin-like enzyme [4]): inhibited | Inhibition (%) Trypsin-like protease (human) (trypsin-like enzyme [4]; 1000 µM): 100% | Inhibition (%) Neutrophile elastase (human) ([5]; 1000 µM): 93.6%

Cc1cc(=O)oc2cc(NC(=O)[C@H](CCCNC(=N)N)NC(=O)[C@H](C)NC(=O)[C@H](CCC(N)=O)NC(=O)OC(C)(C)C)ccc12 [Boc-Gln-Ala-Arg-MCA] (Boc-Gln-Ala-Arg-{AMC})
Substrate digestion ratio (%) Trypsin-like enzyme pH 8.6 (trypsin-like enzyme [1]): 52.2% | Substrate digestion ratio (%) Neutrophile elastase pH 8.6 [2, 11]: 0.3%

Cc1cc(=O)oc2cc(NC(=O)[C@H](C)NC(=O)[C@@H]3CCCN3C(=O)[C@H](C)NC(=O)CCC(=O)O)ccc12 [Suc-Ala-Pro-Ala-MCA] (Suc-Ala-Pro-Ala-{AMC})
Substrate digestion ratio (%) Trypsin-like enzyme pH 8.6 (trypsin-like enzyme [1]): 0% | Substrate digestion ratio (%) Neutrophile elastase pH 8.6 [2, 11]: 100%

CC[C@H](C)[C@H](NC(=O)OC(C)(C)C)C(=O)N[C@@H](CCC(N)=O)C(=O)NCC(=O)N[C@@H](CCCNC(=N)N)C(=O)Nc1ccc2c(C)cc(=O)oc2c1 [Boc-Ile-Gln-Gly-Arg-MCA] (Boc-IQGR-{AMC})
Substrate digestion ratio (%) Trypsin-like enzyme pH 8.6 (trypsin-like enzyme [1]): 13.1% | Substrate digestion ratio (%) Neutrophile elastase pH 8.6 [2, 11]: 0.3% | Substrate digestion ratio (%) Rat mast cell Tryptase pH 8.6 [3]: 149.0%

fibrinogen
Digestion of natural substrate by trypsin-like enzyme (trypsin-like enzyme [7]): specifically digested; also recorded: digests

Cc1cc(=O)oc2cc(NC(=O)[C@@H](N)CC(C)C)ccc12 [Leu-MCA]
Substrate digestion ratio (%) Trypsin-like enzyme pH 8.6 (trypsin-like enzyme [1]): 0% | Substrate digestion ratio (%) Neutrophile elastase pH 8.6 [2, 11]: 0.2%

trypsin-like enzyme isolated from cough phlegm of a patient suffering from a chronic respiratory apparatus disease
Substrate digestion ratio (%) (Boc-Gln-Ala-Arg-MCA): 52.2% | Substrate digestion ratio (%) (Boc-Gln-Gly-Arg-MCA): 13.8% | Substrate digestion ratio (%) (Boc-Ile-Gln-Gly-Arg-MCA): 13.1% | Substrate digestion ratio (%) (Boc-Phe-Ser-Arg-MCA): 100% | Substrate digestion ratio (%) (Boc-Val-Leu-Lys-MCA): 3.9% | Substrate digestion ratio (%) (Boc-Val-Pro-Arg-MCA): 74.6% | Substrate digestion ratio (%) (Suc-Ala-Ala-Pro-Phe-MCA): 0% | Substrate digestion ratio (%) (Suc-Ala-Pro-Ala-MCA): 0% | Substrate digestion ratio (%) [8]: 0%

Cc1cc(=O)oc2cc(NC(=O)[C@H](CCCNC(=N)N)NC(=O)[C@H](CO)NC(=O)[C@H](Cc3ccccc3)NC(=O)OC(C)(C)C)ccc12 [Boc-Phe-Ser-Arg-MCA] (Boc-Phe-Ser-Arg-{AMC})
Substrate digestion ratio (%) Trypsin-like enzyme pH 8.6 (trypsin-like enzyme [1]): 100% | Substrate digestion ratio (%) Neutrophile elastase pH 8.6 [2, 11]: 0.4% | Substrate digestion ratio (%) Rat mast cell Tryptase pH 8.6 [3]: 100%

Cc1cc(=O)oc2cc(NC(=O)[C@H](CCCNC(=N)N)NC(=O)[C@@H]3CCCN3C(=O)[C@@H](NC(=O)OC(C)(C)C)C(C)C)ccc12 [Boc-Val-Pro-Arg-MCA] (Boc-Val-Pro-Arg-{AMC})
Substrate digestion ratio (%) Trypsin-like enzyme pH 8.6 (trypsin-like enzyme [1]): 74.6% | Substrate digestion ratio (%) Neutrophile elastase pH 8.6 [2, 11]: 0.2% | Substrate digestion ratio (%) Rat mast cell Tryptase pH 8.6 [3]: 50.6%

rat mast cell-derived tryptase (from UniProt P27435) (enzyme)
Substrate digestion ratio (%) (Boc-Gln-Gly-Arg-MCA): 4.6% | Substrate digestion ratio (%) (Boc-Ile-Gln-Gly-Arg-MCA): 149% | Substrate digestion ratio (%) (Boc-Phe-Ser-Arg-MCA): 100% | Substrate digestion ratio (%) (Boc-Val-Leu-Lys-MCA): 6.1% | Substrate digestion ratio (%) (Boc-Val-Pro-Arg-MCA): 50.6% | Substrate digestion ratio (%) (Suc-Ala-Ala-Pro-Phe-MCA): 2%

human neutrophile elastase (from UniProt P08246) (enzyme)
Substrate digestion ratio (%) (Boc-Gln-Ala-Arg-MCA): 0.3% | Substrate digestion ratio (%) (Boc-Gln-Gly-Arg-MCA): 0.2% | Substrate digestion ratio (%) (Boc-Ile-Gln-Gly-Arg-MCA): 0.3% | Substrate digestion ratio (%) (Boc-Phe-Ser-Arg-MCA): 0.4% | Substrate digestion ratio (%) (Boc-Val-Leu-Lys-MCA): 0.1% | Substrate digestion ratio (%) (Boc-Val-Pro-Arg-MCA): 0.2% | Substrate digestion ratio (%) (Suc-Ala-Ala-Pro-Phe-MCA): 0.1% | Substrate digestion ratio (%) (Suc-Ala-Pro-Ala-MCA): 100% | Substrate digestion ratio (%) [8]: 0%

Cc1cc(=O)oc2cc(NC(=O)[C@@H]3CCCN3C(=O)CNC(=O)[C@H](CC(C)C)NC(=O)[C@@H]3CCCN3C(=O)CNC(=O)CCC(=O)O)ccc12 [Suc-Gly-Pro-Leu-Gly-Pro-MCA] (Suc-GPLGP-{AMC})
Substrate digestion ratio (%) Trypsin-like enzyme pH 8.6 (trypsin-like enzyme [1]): 0% | Substrate digestion ratio (%) Neutrophile elastase pH 8.6 [2, 11]: 0%

α-1-antitrypsin: a blood protease inhibitor; also used as natural substrate
Digestion of natural substrate by trypsin-like enzyme (trypsin-like enzyme [7]): does not digest | Digestion of natural substrate by trypsin-like enzyme (trypsin-like enzyme [7]; listed as al-antitrypsin): not digested | Inhibition of trypsin-like enzyme (in words) (trypsin-like enzyme [4]; [12]): inhibited | Inhibition (%) Trypsin-like protease (human) (trypsin-like enzyme [4]; inhibitor 10 μM): 23.5% | Inhibition (%) Tryptase (derived from rat mast cell) ([6]; 10 µM): 66.3%

vasoactive intestinal peptide [VIP]
Digestion of natural substrate by trypsin-like enzyme (trypsin-like enzyme [7]): specifically digested; also recorded: digests

CC(C)C[C@H](NC(=O)[C@@H](O)[C@H](N)Cc1ccccc1)C(=O)O [Bestatin, bestatin]
Inhibition of trypsin-like enzyme (in words) (trypsin-like enzyme [4]; [12]): not inhibited | inhibition at 10 µM (trypsin-like enzyme [4]; inhibitor 10 μM): 0% | inhibition at 10 µM ([5]; inhibitor 10 μM): 15.2% | Inhibition (%) Tryptase (derived from rat mast cell) ([6]; inhibitor 10 μM): 23.4%

CC(C)C[C@@H](N)[C@H](O)C(=O)N[C@H](C(=O)N[C@H](C(=O)N[C@@H](CC(=O)O)C(=O)O)C(C)C)C(C)C [Amastatin, amastatin]
Inhibition of trypsin-like enzyme (in words) (trypsin-like enzyme [4]; [12]): not inhibited | inhibition at 10 µM (trypsin-like enzyme [4]; inhibitor 10 μM): 0% | inhibition at 10 µM ([5]; inhibitor 10 μM): 67.6% | Inhibition (%) Tryptase (derived from rat mast cell) ([6]; inhibitor 10 μM): 6.6%

CC(=O)N[C@@H](CC(C)C)C(=O)N[C@@H](CC(C)C)C(=O)N[C@H](C=O)CCCNC(=N)N [Leupeptin, leupeptin]
Inhibition of trypsin-like enzyme (in words) (trypsin-like enzyme [4]): inhibited | inhibition at 10 µM (trypsin-like enzyme [4]): 82.5% | inhibition at 10 µM [5]: 0% | Inhibition (%) Tryptase (derived from rat mast cell) ([6]; 10 µM): 100%

substance P
Digestion of natural substrate by trypsin-like enzyme (trypsin-like enzyme [7]): not digested; also recorded: does not digest

α1-antitrypsin
Inhibition (%) [9]: 66.3% | Inhibition (%) [10]: 23.5%

elastinol
Inhibition of trypsin-like enzyme (in words) (trypsin-like enzyme [4]; [12]): not inhibited | Inhibition (%) Trypsin-like protease (human) (trypsin-like enzyme [4]; inhibitor 10 μM): 0% | Inhibition (%) Neutrophile elastase (human) ([5]; inhibitor 10 μM): 0% | Inhibition (%) Tryptase (derived from rat mast cell) ([6]; inhibitor 10 μM): 53.0%

Cc1cc(=O)oc2cc(NC(=O)[C@H](CCCNC(=N)N)NC(=O)CNC(=O)[C@H](CCC(N)=O)NC(=O)OC(C)(C)C)ccc12 [Boc-Gln-Gly-Arg-MCA] (Boc-Gln-Gly-Arg-{AMC})
Substrate digestion ratio (%) Trypsin-like enzyme pH 8.6 (trypsin-like enzyme [1]): 13.8% | Substrate digestion ratio (%) Neutrophile elastase pH 8.6 [2, 11]: 0.2% | Substrate digestion ratio (%) Rat mast cell Tryptase pH 8.6 [3]: 4.6%
